Literature values as cited in patent US9550991B2, “Transcription factor decoys” (PROCARTA […]., priority 2010, dated 2017).
“Also recorded” adds a separate entry of the source.

What was measured:
[1] = physiological buffers, biological fluids, salt, dilution, storage

For `Cc1cc(N)c2ccccc2[n+]1CCCCCCCCCC[n+]1c(C)cc(N)c2ccccc21` [dequalinium], the “stability of complexes formed with DNA” value [1] is listed as “unstable over time”.

In the case of `Nc1c2c([n+](CCCCCCCCCC[n+]3c4c(c(N)c5ccccc53)CCCC4)c3ccccc13)CCCC2.[Cl-].[Cl-]` [Compound 7, 10,10′-(decane-1,10-diyl)bis(9-amino-1,2,3,4-tetrahydroacridinium) dichloride], the “in vitro toxicity compared to dequalinium” value is given as “lower toxicity in vitro compared to dequalinium; also recorded: less in vitro toxicity than dequalinium” and the “stability of complexes formed with DNA” value [1] is given as “forms more stable complexes”.
